In patent publication US20230172915A1, “DHODH INHIBITOR FOR THE TREATMENT OF COVID-19” (priority 2020, published 2023):

Legend:
[1] = system: SARS-CoV-2 USA-WA1/2020; test: PTC299 and remdesivir alone or combined, SARS-CoV-2 titer in Vero cells (TCID50); format: cell-based; details: remdesivir 5 µM, 24 hours post infection
[2] = biological target: T1, DHODH (Homo sapiens, UniProt Q02127); test: Isolated mitochondria colorimetric assay of DHODH activity; format: biochemical; details: 0.1, 1, 10, 100, 1000, or 1000 nM
T1 construct: from tissue; host or cells: isolated mitochondria / mitochondria extracts
Text: FIG. 3 is a plot of % inhibition vs compound concentration in nM, illustrating the results of a colorimetric assay of inhibition of DHODH activity in vitro in mitochondria extracts by PTC299, brequinar, and teriflunomide, compared to the negative control, PTC-371.
The latter two compounds are known DHODH inhibitors.

[3] = system: HT1080 human fibrosarcoma cells; test: De novo pyrimidine nucleotide synthesis from 15N-glutamine in HT1080 cells; format: cell-based; details: 100 nM
Text: In this Example, fibrosarcoma cells were used to investigate the effect of PTC299 on pyrimidine nucleotide synthesis. Glutamine is an upstream precursor of dihydroorotic acid in the de novo pyrimidine synthesis pathway, as illustrated in FIG. 1.

T1 sequence (Q02127 whole entry, species assumed): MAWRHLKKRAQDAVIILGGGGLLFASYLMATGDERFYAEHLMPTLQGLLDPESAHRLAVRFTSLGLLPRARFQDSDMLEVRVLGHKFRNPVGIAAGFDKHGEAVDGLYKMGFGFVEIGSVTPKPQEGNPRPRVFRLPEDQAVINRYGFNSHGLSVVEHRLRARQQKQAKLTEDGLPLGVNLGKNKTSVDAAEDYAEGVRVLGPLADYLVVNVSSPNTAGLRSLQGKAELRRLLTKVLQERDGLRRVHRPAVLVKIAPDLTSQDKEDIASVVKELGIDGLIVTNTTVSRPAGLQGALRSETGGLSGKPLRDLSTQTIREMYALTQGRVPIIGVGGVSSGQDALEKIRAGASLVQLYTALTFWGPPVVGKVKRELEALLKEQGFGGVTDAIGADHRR

SMILES | reduction in titer relative to untreated control [1] | inhibition of DHODH activity [2] | suppression of de novo pyrimidine nucleotide biosynthesis [3]
CCC(CC)COC(=O)[C@H](C)N[P@](=O)(OC[C@H]1O[C@@](C#N)(c2ccc3c(N)ncnn23)[C@H](O)[C@@H]1O)Oc1ccccc1 [Remdesivir, remdesivir, reference compound] | 86% |  | 
COc1ccc(C2c3[nH]c4ccc(Cl)cc4c3CCN2C(=O)Oc2ccc(Cl)cc2)cc1 (stereo not drawn) [PTC-371, reference compound] |  | no inhibition was observed | did not suppress de novo pyrimidine nucleotide biosynthesis
